What is called IC50 is the concentration that inhibits the measured activity by half. For orientation: bioavailability means the share of a dose that reaches the circulation, judged against a reference dose that is usually intravenous. A low value points to little systemic uptake.

This note sets out measurements from ChEMBL document CHEMBL2040771, “Discovery of a potent inhibitor of anaplastic lymphoma kinase with in vivo antitumor activity” (ACS Med Chem Lett, 2010).

The target in one data set is Insulin receptor (Homo sapiens, UniProt P06213). As to the kind of experiment: Inhibition of insulin receptor.
Sequence of Insulin receptor (P06213 28-758 limits assumed): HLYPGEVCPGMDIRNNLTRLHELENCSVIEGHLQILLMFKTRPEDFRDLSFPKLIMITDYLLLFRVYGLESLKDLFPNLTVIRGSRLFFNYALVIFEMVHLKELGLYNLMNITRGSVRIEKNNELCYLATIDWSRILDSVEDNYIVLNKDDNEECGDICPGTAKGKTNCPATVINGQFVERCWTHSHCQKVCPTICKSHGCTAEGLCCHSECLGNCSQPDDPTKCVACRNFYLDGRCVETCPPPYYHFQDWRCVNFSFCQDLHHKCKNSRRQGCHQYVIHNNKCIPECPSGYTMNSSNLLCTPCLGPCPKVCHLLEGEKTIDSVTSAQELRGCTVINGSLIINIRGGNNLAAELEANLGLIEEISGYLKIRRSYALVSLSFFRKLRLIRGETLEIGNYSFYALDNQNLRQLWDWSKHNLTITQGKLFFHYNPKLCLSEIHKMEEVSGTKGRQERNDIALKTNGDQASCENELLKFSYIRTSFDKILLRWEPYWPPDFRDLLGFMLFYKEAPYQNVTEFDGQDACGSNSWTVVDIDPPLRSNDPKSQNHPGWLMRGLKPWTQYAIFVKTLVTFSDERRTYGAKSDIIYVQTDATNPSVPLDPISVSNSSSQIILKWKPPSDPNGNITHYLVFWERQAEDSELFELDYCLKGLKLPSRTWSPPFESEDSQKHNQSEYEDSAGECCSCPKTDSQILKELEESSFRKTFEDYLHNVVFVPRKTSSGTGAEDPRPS
Sequence of Insulin receptor (P06213 763-1382 limits assumed): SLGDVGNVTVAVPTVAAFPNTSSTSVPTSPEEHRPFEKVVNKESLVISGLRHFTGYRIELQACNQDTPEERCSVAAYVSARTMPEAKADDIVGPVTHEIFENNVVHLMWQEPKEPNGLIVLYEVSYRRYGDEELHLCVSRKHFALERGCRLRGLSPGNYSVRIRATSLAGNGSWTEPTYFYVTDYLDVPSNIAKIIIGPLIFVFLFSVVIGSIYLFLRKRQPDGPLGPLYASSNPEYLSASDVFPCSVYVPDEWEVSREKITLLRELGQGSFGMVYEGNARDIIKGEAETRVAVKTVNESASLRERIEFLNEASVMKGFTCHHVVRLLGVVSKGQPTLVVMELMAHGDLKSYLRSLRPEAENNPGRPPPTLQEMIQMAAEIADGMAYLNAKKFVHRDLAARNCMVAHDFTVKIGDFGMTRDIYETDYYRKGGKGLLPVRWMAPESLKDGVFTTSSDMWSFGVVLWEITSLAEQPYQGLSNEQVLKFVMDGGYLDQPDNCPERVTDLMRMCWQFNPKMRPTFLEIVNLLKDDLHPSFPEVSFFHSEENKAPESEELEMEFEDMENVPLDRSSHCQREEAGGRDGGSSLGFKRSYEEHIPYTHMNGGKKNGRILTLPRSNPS
A short description of data set [1]: Oral bioavailability in rat. The data set is classed as ADME, organism-based. The conditions noted are these: in vivo.
Data set [2] deals with ALK tyrosine kinase receptor (Homo sapiens, UniProt Q9UM73). As to the kind of experiment: Inhibition of ALK.
Sequence of ALK tyrosine kinase receptor (Q9UM73 whole entry): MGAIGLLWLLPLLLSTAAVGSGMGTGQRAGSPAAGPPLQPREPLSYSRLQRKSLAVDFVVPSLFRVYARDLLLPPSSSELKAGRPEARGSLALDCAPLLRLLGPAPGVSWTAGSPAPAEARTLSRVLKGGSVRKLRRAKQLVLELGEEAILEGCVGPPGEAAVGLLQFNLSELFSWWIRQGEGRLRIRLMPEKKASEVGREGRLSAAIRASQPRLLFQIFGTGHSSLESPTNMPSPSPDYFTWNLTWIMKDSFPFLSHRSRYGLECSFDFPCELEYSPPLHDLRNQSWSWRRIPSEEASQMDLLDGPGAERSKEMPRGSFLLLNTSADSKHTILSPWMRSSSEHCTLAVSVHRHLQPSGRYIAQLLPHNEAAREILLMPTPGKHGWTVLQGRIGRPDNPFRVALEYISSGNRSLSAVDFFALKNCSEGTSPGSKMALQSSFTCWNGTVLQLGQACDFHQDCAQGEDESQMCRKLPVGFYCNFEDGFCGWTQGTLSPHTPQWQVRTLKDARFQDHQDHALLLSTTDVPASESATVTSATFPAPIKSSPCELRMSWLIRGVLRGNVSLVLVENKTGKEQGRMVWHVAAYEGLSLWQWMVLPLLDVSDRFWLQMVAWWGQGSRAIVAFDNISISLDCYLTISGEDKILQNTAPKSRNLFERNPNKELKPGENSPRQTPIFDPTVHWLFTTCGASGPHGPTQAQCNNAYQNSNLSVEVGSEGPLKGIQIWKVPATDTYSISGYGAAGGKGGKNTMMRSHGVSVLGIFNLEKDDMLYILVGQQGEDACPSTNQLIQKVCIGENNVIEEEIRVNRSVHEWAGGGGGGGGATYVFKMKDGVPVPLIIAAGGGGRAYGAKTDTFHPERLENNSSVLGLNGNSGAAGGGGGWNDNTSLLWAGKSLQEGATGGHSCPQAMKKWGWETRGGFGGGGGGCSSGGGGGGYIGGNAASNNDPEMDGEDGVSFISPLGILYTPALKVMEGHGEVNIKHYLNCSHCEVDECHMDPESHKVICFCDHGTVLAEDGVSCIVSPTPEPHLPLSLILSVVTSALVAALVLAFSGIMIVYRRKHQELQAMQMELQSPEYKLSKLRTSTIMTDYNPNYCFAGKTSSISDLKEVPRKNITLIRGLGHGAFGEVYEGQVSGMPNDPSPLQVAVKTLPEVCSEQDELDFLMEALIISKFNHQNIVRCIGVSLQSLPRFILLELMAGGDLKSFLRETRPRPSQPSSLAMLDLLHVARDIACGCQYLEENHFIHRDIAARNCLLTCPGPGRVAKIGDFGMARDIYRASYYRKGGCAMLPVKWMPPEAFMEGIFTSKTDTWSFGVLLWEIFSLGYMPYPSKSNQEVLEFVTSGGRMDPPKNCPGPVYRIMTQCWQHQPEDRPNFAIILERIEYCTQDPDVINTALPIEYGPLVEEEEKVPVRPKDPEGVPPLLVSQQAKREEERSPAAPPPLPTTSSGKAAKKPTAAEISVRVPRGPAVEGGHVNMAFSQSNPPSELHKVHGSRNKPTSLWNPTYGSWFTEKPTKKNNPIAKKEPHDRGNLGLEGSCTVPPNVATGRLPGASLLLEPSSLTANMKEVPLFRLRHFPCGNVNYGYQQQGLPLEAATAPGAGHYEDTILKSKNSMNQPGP

With `CCN1C(=O)CCCc2c1ccc(Nc1ncc(Cl)c(Nc3ccccc3C(=O)NC)n1)c2OC`, on Insulin receptor, half-maximal inhibition (IC50) was put at 215 nM.
For `CN1C(=O)CCCc2cc(Nc3ncc(Cl)c(N[C@H]4[C@@H](C(N)=O)[C@@H]5C=C[C@H]4C5)n3)ccc21` (racemic), half-maximal inhibition against Insulin receptor (IC50) was put at 91 nM. The bioavailability in data set [1] turned out to be 13%.
The molecule `CN1C(=O)CCCc2cc(Nc3ncc(Cl)c(N[C@@H]4CCCC[C@@H]4C(N)=O)n3)ccc21` (racemic) returned an IC50 against Insulin receptor of 319 nM.
In the case of `CCN1C(=O)CCCc2c1ccc(Nc1ncc(Cl)c(Nc3ccccc3S(=O)(=O)C(C)C)n1)c2OC`, 32 nM corresponded to half-maximal inhibition against Insulin receptor (IC50).
On the same count and under the same terms, the same measure for `CN1C(=O)CCCc2cc(Nc3ncc(Cl)c(N[C@@H]4CCCC[C@H]4C(N)=O)n3)ccc21` (racemic): 2010 nM; for `CCN1C(=O)CCCc2cc(Nc3ncc(Cl)c(Nc4ccccc4C(=O)NC)n3)c(OC)cc21`: 34 nM.
In turn, `CCN1C(=O)CCCc2cc(Nc3ncc(Cl)c(Nc4ccccc4S(=O)(=O)C(C)C)n3)c(OC)cc21` gave an IC50 against Insulin receptor of 12 nM.
In the case of `CNC(=O)c1cccc(Nc2nc(Nc3ccc4c(c3)CCCC(=O)N4C)ncc2Cl)c1`, the IC50 against Insulin receptor stood at 247 nM; in data set [2], 568 nM.
In data set [1], `CNC(=O)c1ccccc1Nc1nc(Nc2ccc3c(c2)CCCC(=O)N3C)ncc1Cl` returned a bioavailability of 9%.
At Insulin receptor, `CCN1C(=O)CCCc2c1ccc(Nc1ncc(Cl)c(Nc3ccccc3S(=O)(=O)N(C)C)n1)c2OC` showed an IC50 of 71 nM.
On Insulin receptor, `CNS(=O)(=O)c1ccccc1Nc1nc(Nc2ccc3c(c2)CCCC(=O)N3C)ncc1Cl` showed a half-inhibitory concentration (IC50) of 10 nM. In data set [1], this molecule had a bioavailability of 11%.
In turn, `CCN1C(=O)CCCc2cc(Nc3ncc(Cl)c(Nc4ccccc4S(=O)(=O)N(C)C)n3)c(OC)cc21` gave a concentration for half-maximal inhibition (IC50) against Insulin receptor of 37 nM.
`CCN1C(=O)CCCc2cc(Nc3ncc(Cl)c(N[C@H]4[C@@H](C(N)=O)[C@@H]5C=C[C@H]4C5)n3)c(OC)cc21`: the IC50 on Insulin receptor turned out to be 89 nM. Compared with the last molecule, the IC50 is about 2.4-fold higher.
